Results from US12637480B2, “Heterocyclic compounds as sting modulators” (BEIGENE, LTD., priority 2020, dated 2026).
Structures can show the parent of a compound that is named as a salt.

What was measured:
[1] = molecular target: human STING (hSTING) HAQ variant in THP1-Dual HAQ Cells (Homo sapiens, UniProt Q86WV6, G230A/H232R/R293Q/R71H); assay: STING cellular assay in THP1-Dual HAQ cells (ISG54 Lucia luciferase reporter, QUANTI-Luc)
[2] = molecular target: human STING (hSTING) R232 variant in THP1-Dual KI-hSTING-R232 Cells (Homo sapiens, UniProt Q86WV6, H232R); assay: STING cellular assay in THP1-Dual KI-hSTING-R232 cells (ISG54 Lucia luciferase reporter, QUANTI-Luc)
Chain of human STING (hSTING) R232 variant in THP1-Dual KI-hSTING-R232 Cells (Q86WV6 whole entry H232R): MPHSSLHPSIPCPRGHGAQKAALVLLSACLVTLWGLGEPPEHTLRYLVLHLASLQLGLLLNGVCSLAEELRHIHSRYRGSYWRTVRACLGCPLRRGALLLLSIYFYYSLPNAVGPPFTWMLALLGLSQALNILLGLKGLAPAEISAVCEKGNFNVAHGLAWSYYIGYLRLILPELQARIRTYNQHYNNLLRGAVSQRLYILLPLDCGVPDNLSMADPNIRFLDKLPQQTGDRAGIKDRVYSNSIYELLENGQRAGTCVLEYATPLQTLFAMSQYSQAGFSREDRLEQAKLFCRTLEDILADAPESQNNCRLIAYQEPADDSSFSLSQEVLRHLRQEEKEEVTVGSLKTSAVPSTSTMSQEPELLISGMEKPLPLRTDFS

Chain of human STING (hSTING) HAQ variant in THP1-Dual HAQ Cells (Q86WV6 whole entry R71H/G230A/H232R/R293Q): as the sequence (Q86WV6 whole entry H232R) above, with R71H, G230A, R293Q counted along it

Row | Structure (SMILES) | EC50 [1] [nM] | EC50 [2] [nM]
1 | CCn1nc(C)cc1C(=O)Nc1nc2cc(C(N)=O)cnc2n1C/C=C/Cn1c2nc(-c3cc(C)nn3CC)ncc2c2cc(C(N)=O)cc(OCCCN3CCN(C(=O)OC(C)(C)C)CC3)c21 [Example 2-AA, tert-butyl (E)-4-(3-((6-carbamoyl-9-(4-(6-carbamoyl-2-(1-ethyl-3-methyl-1H-pyrazole-5-carboxamido)-3H-imidazo[4,5-b]pyridin-3-yl)but-2-en-1-yl)-2-(1-ethyl-3-methyl-1H-pyrazol-5-yl)-9H-pyrimido[4,5-b]indol-8-yl)oxy)propyl)piperazine-1-carboxylate] | 2.4 | 0.46
2 | CCn1nc(C)cc1C(=O)Nc1nc2cc(C(N)=O)cnc2n1C/C=C/Cn1c2nc(-c3cc(C)nn3CC)ncc2c2cc(C(N)=O)cc(OCCCN3CCN(C(=O)CON)CC3)c21 [Example 2-AC, (E)-8-(3-(4-(2-(aminooxy)acetyl)piperazin-1-yl)propoxy)-9-(4-(6-carbamoyl-2-(1-ethyl-3-methyl-1H-pyrazole-5-carboxamido)-3H-imidazo[4,5-b]pyridin-3-yl)but-2-en-1-yl)-2-(1-ethyl-3-methyl-1H-pyrazol-5-yl)-9H-pyrimido[4,5-b]indole-6-carboxamide] | 118 | 10
3 | CCn1nc(C)cc1C(=O)Nc1nc2cc(C(N)=O)cnc2n1C/C=C/Cn1c2nc(-c3cc(C)nn3CC)ncc2c2cc(C(N)=O)cc(OCCCCNC)c21 [Example 3-AB-HCl, (E)-9-(4-(6-carbamoyl-2-(1-ethyl-3-methyl-1H-pyrazole-5-carboxamido)-3H-imidazo[4,5-b]pyridin-3-yl)but-2-en-1-yl)-2-(1-ethyl-3-methyl-1H-pyrazol-5-yl)-8-(4-(methylamino)butoxy)-9H-pyrimido[4,5-b]indole-6-carboxamide hydrochloride] | 640 | 23
4 | CCn1nc(C)cc1C(=O)Nc1nc2cc(C(N)=O)cnc2n1C/C=C/Cn1c2nc(-c3cc(C)nn3CC)ncc2c2cc(C(N)=O)cc(OCCC3CNC3)c21 [Example 4-AB, (E)-8-(2-(azetidin-3-yl)ethoxy)-9-(4-(6-carbamoyl-2-(1-ethyl-3-methyl-1H-pyrazole-5-carboxamido)-3H-imidazo[4,5-b]pyridin-3-yl)but-2-en-1-yl)-2-(1-ethyl-3-methyl-1H-pyrazol-5-yl)-9H-pyrimido[4,5-b]indole-6-carboxamide] | 1040 | 30
5 | CCn1nc(C)cc1C(=O)Nc1nc2cc(C(N)=O)cnc2n1C/C=C/Cn1c2nc(-c3cc(C)nn3CC)ncc2c2cc(C(N)=O)cc(OCCCC3CNC3)c21 [Example 5-AB, (E)-8-(3-(azetidin-3-yl)propoxy)-9-(4-(6-carbamoyl-2-(1-ethyl-3-methyl-1H-pyrazole-5-carboxamido)-3H-imidazo[4,5-b]pyridin-3-yl)but-2-en-1-yl)-2-(1-ethyl-3-methyl-1H-pyrazol-5-yl)-9H-pyrimido[4,5-b]indole-6-carboxamide] | 862 | 27
6 | CCn1nc(C)cc1C(=O)Nc1nc2cc(C(N)=O)cnc2n1C/C=C/Cn1c2nc(-c3cc(C)nn3CC)ncc2c2cc(C(N)=O)cc(OCCC3CCNCC3)c21 [Example 6-AB] | 674 | 29
7 | CCn1nc(C)cc1C(=O)Nc1nc2cc(C(N)=O)cnc2n1C/C=C/Cn1c2nc(-c3cc(C)nn3CC)ncc2c2cc(C(N)=O)cc(OCCC3CCN(C(=O)OC(C)(C)C)CC3)c21 [Example-6-AA, tert-butyl (E)-4-(2-((6-carbamoyl-9-(4-(6-carbamoyl-2-(1-ethyl-3-methyl-1H-pyrazole-5-carboxamido)-3H-imidazo[4,5-b]pyridin-3-yl)but-2-en-1-yl)-2-(1-ethyl-3-methyl-1H-pyrazol-5-yl)-9H-pyrimido[4,5-b]indol-8-yl)oxy)ethyl)piperidin-1-carboxylate] | 49 | 0.9

Further compounds by falling EC50 [1], results first:

Row | EC50 [1] [nM] | EC50 [2] [nM] | Structure (SMILES)
8 | 565 | 11 | CCn1nc(C)cc1C(=O)Nc1nc2cc(C(N)=O)cnc2n1C/C=C/Cn1c2nc(-c3cc(C)nn3CC)ncc2c2cc(C(N)=O)cc(OCCCN3CCNCC3)c21 [Example 2-AB-HCl, (E)-9-(4-(6-carbamoyl-2-(1-ethyl-3-methyl-1H-pyrazole-5-carboxamido)-3H-imidazo[4,5-b]pyridin-3-yl)but-2-en-1-yl)-2-(1-ethyl-3-methyl-1H-pyrazol-5-yl)-8-(3-(piperazin-1-yl)propoxy)-9H-pyrimido[4,5-b]indole-6-carboxamide hydrochloride]
9 | 355 | 6.2 | CCn1nc(C)cc1C(=O)Nc1nc2cc(C(N)=O)cnc2n1C/C=C/Cn1c2nc(-c3cc(C)nn3CC)ncc2c2cc(C(N)=O)cc(OCCCNC)c21 [Example 1-AB, (E)-9-(4-(6-carbamoyl-2-(1-ethyl-3-methyl-1H-pyrazole-5-carboxamido)-3H-imidazo[4,5-b]pyridin-3-yl)but-2-en-1-yl)-2-(1-ethyl-3-methyl-1H-pyrazol-5-yl)-8-(3-(methylamino)propoxy)-9H-pyrimido[4,5-b]indole-6-carboxamide]
10 | 305 | 16 | CCn1nc(C)cc1C(=O)Nc1nc2cc(C(N)=O)cnc2n1C/C=C/Cn1c2nc(-c3cc(C)nn3CC)ncc2c2cc(C(N)=O)cc(OCCCC3CCNCC3)c21 [Example 7-AB]
11 | 39 | 1.6 | CCn1nc(C)cc1C(=O)Nc1nc2cc(C(N)=O)cnc2n1C/C=C/Cn1c2nc(-c3cc(C)nn3CC)ncc2c2cc(C(N)=O)cc(OCCCC3CN(C(=O)OC(C)(C)C)C3)c21 [Example 5-AA, tert-butyl (E)-3-(3-((6-carbamoyl-9-(4-(6-carbamoyl-2-(1-ethyl-3-methyl-1H-pyrazole-5-carboxamido)-3H-imidazo[4,5-b]pyridin-3-yl)but-2-en-1-yl)-2-(1-ethyl-3-methyl-1H-pyrazol-5-yl)-9H-pyrimido[4,5-b]indol-8-yl)oxy)propyl)azetidine-1-carboxylate]
12 | 34 | 3.6 | CCn1nc(C)cc1C(=O)Nc1nc2cc(C(N)=O)cnc2n1C/C=C/Cn1c2nc(-c3cc(C)nn3CC)ncc2c2cc(C(N)=O)cc(OCCCN(C)C(=O)CON)c21 [Example 1-AC]
13 | 28 | 1 | CCn1nc(C)cc1C(=O)Nc1nc2cc(C(N)=O)cnc2n1C/C=C/Cn1c2nc(-c3cc(C)nn3CC)ncc2c2cc(C(N)=O)cc(OCCCC3CCN(C(=O)OC(C)(C)C)CC3)c21 [Example 7-AA, tert-butyl (E)-4-(3-((6-carbamoyl-9-(4-(6-carbamoyl-2-(1-ethyl-3-methyl-1H-pyrazole-5-carboxamido)-3H-imidazo[4,5-b]pyridin-3-yl)but-2-en-1-yl)-2-(1-ethyl-3-methyl-1H-pyrazol-5-yl)-9H-pyrimido[4,5-b]indol-8-yl)oxy)propyl)piperidine-1-carboxylate]
14 | 4.8 | 0.78 | CCn1nc(C)cc1C(=O)Nc1nc2cc(C(N)=O)cnc2n1C/C=C/Cn1c2nc(-c3cc(C)nn3CC)ncc2c2cc(C(N)=O)cc(OCCC3CN(C(=O)OC(C)(C)C)C3)c21 [Example 4-AA, tert-butyl (E)-3-(2-((6-carbamoyl-9-(4-(6-carbamoyl-2-(1-ethyl-3-methyl-1H-pyrazole-5-carboxamido)-3H-imidazo[4,5-b]pyridin-3-yl)but-2-en-1-yl)-2-(1-ethyl-3-methyl-1H-pyrazol-5-yl)-9H-pyrimido[4,5-b]indol-8-yl)oxy)ethyl)azetidine-1-carboxylate]
15 | 4.1 | 0.52 | CCn1nc(C)cc1C(=O)Nc1nc2cc(C(N)=O)cnc2n1C/C=C/Cn1c2nc(-c3cc(C)nn3CC)ncc2c2cc(C(N)=O)cc(OCCCCN(C)C(=O)OC(C)(C)C)c21 [Example 3-AA, tert-butyl (E)-(4-((6-carbamoyl-9-(4-(6-carbamoyl-2-(1-ethyl-3-methyl-1H-pyrazole-5-carboxamido)-3H-imidazo[4,5-b]pyridin-3-yl)but-2-en-1-yl)-2-(1-ethyl-3-methyl-1H-pyrazol-5-yl)-9H-pyrimido[4,5-b]indol-8-yl)oxy)butyl)(methyl)carbamate]
16 | 3.4 | 0.58 | CCn1nc(C)cc1C(=O)Nc1nc2cc(C(N)=O)cnc2n1C/C=C/Cn1c2nc(-c3cc(C)nn3CC)ncc2c2cc(C(N)=O)cc(OCCCN(C)C(=O)OC(C)(C)C)c21 [Example 1-AA]
